US12163169B2, “Inducible chimeric cytokine receptors” (Allogene Therapeutics, Inc., priority 2018, dated 2024)
“Also recorded” adds a separate entry of the source.

Legend:
[1] = tested on: BCMA(1-54), TACI(1-165) and BAFFR(1-78) ectodomain chimeric cytokine receptors; experiment: HEK293T Stat reporter assay of TNFR2 superfamily ectodomain receptors with soluble BAFF trimers (Example 14); assay type: cell-based; conditions: 5 hours post-treatment
Text: To test if the panel of ligand inducers and ectodomains can be further extended beyond the AP1903-FKBP(F36V) pairing, we tested signaling in response to other multimeric ligand inducers. As the Tumor Necrosis Family (TNF) superfamily of ligands are trimers, they engage their respective receptors in a multimeric fashion. Therefore, we fused ectodomains derived from the TNFR2 superfamily receptors, such as BCMA(1-54), TACI(1-165) and BAFFR(1-78), to the transmembrane and signaling domains of our chimeric cytokine receptors, and tested signaling in response to soluble trimeric ligand. Briefly, 20,000 HEK293T cells were plated into each well of a poly-L-lysine-coated 96-well flat-bottom plate and allowed to adhere overnight. The chimeric cytokine receptor (2.5 ng), a Stat response element that drives Firefly Luciferase (100 ng; Promega) and Renilla Luciferase control reporter vector (1 ng; Promega) were mixed in a final volume of 5 uL in Opti-MEM (Gibco) (“DNA mix”). 0.3 uL Lipofectamine 2000 (Invitrogen) in 5 uL Opti-MEM was incubated at room temperature for 5 minutes and then added to the DNA mix. […] 24 hours after transfection, cells were either left untreated, or treated with soluble BAFF or APRIL trimers diluted in serum-free media, and Stat reporter activity was determined 5 hours post-treatment using the Dual-Glo Luciferase Assay System (Promega). […]

STAT5 [2] = experiment: STAT5 signaling by IL7Ra, IL2Rb and IFNAR2 derived cytotail fragments (Example 6, FIG. 11); assay type: cell-based; conditions: EpoR(237-338; L241G, L242P) tyrosine kinase activating domain, short (8 h) AP1903 treatment
Experimental: In this study, IL2Rb, IL7R, and […] cytotails were analyzed to identify tyrosines sufficient for key aspects of signaling. For instance, a segment of IL2Rb containing the STAT5-interacting tyrosines Y418 and Y436 might retain STAT5 signaling, but may lose PI3K signaling as this requires Y364 of the IL2Rb cytotail. Inducible chimeric cytokine receptors comprising the IL7R, IL2Rb, and IFNAR2 tails may include one or more tyrosine motifs within the cytotails. Elimination of one or more portions of the tail (e.g., the IL12Rb2 tail) in some cases results in removal of negative regulatory motifs and stronger signaling.
In this study, signaling by a variety of IL7Ra and IL2Rb derived fragments using the EpoR-based tyrosine kinase activating domain were tested. The following inducible chimeric cytokine receptors were tested in this study:
Constructs that are plotted include tyrosine effector domains derived from the IL7R and IL2Rb cytotails.

STAT5 [3] = experiment: STAT5 luciferase reporter assay of small-molecule inducible Epo receptors in HEK293T cells (Example 2); assay type: cell-based; conditions: AP1903 added vs no ligand, FIG. 4
Text: According to the construct name, receptors contain a membrane-targeting motif (CD8 signal sequence (CD8 SS) or myristoyl), a dimerization domain (FKBP(F36V) or mutants thereof), a portion of the EpoR that contains a transmembrane (EpoR(237-272)), a JAK2 binding motif (EpoR(273-338)), and/or a tyrosine effector domain (EpoR(339-508)). Constructs may also include epitope tags (Myc or V5) for western blot or flow analyses.
Vectors encoding the inducible chimeric cytokine receptors were transfected into HEK293T cells along with a luciferase reporter for the STAT5 transcription factor (Promega E4651). The reporter vector consists of a firefly luficerase expressed under the control of a STAT5 responsive DNA element. Upon addition of erythropoietin (Epo), the erythropoietin receptor (EpoR) activates the JAK2 kinase which then phosphorylates tyrosines on the EpoR cytotail to generate binding sites for STAT5. […] Epo was added to samples with cells transfected with EpoR, and AP1903 was added to the samples with cells transfected with fusions of the EpoR to FKBP. No Epo or AP1903 was added to samples to assess baseline signaling. In FIG. 4, “ligand” is either Epo or AP1903.

CAR-T cells [4] = experiment: Live cell count and viability of EGFRvIII CAR-T cells grown with IL2, AP1903 or no treatment (Example 7); assay type: cell-based, human; conditions: for CAR-T cell growth with AP1903 (live cell count) / CAR-T cell viability with AP1903: EGFRvIII CAR-T cells; for CAR-T cell growth with AP1903 (live cell count): 8 days post production, FIG. 16; for CAR-T cell viability with AP1903: FIG. 17
Text: (§1) In this study, lentiviral (pLVX) constructs were generated comprising an SFFV promoter followed by a kozak sequence, the inducible chimeric cytokine receptor, a T2A sequence, and a chimeric antigen receptor. The chimeric antigen receptor was directed towards cells expressing EGFRvIII. For comparison, lentiviral constructs with either TagBFP or GoCART instead of the inducible chimeric cytokine receptor were used. GoCART consists of a myristoylation sequence followed by a portion of MyD88 and CD40 fused to two repeats of FKBP(F36V).
(§2) The T cells were transduced with lentivirus 2 days after isolation, and 3 days later were FACS sorted by binding APC-labeled EGFRvIII. The sorted EGFRvIII+ cells were cultured until 14 days post isolation.
At day 14, the 0.5e6 cells were resuspended in a 24-well plate, and grown with either IL2, AP1903, or no treatment for 8 days post production.

CAR-T cells [5] = experiment: Phenotyping of CAR-T cells at day 8 post production (Example 7); assay type: cell-based, human; conditions: for cell phenotype after growth with AP1903: FIG. 18, FIG. 19
Text: as §1, §2
At day 8 post production growth with AP1903 or IL2, cells were phenotyped.

CAR-T cells [6] = experiment: Cytokine measurement of CAR-T cells on day 2 and day 8 (Example 7); assay type: cell-based, human; conditions: for cytokine release without any treatment: day 2 and 8 post production, FIG. 23, FIG. 24; for autoactivation (cytokine release in the absence of small molecule): no treatment
Text: as §1, §2
Cytokines were measured on day 2 and day 8. AP1903 data is shown FIG. 20 and FIG. 21. All values were normalized to untreated TagBFP-expressing CAR-T Cells. […] The IFN-related tails do incur some cytokine release.
Induction of cytokines at day 2 and 8 post production without any treatment was measured.

STAT4 = STAT4 luciferase reporter assay comparing tyrosine kinase activating domains in HEK293 cells co-transfected with STAT4 (Example 5A); assay type: cell-based; conditions: for basal signaling: without ligand
Text: For this study, several tyrosine kinase activating domains were compared using a otherwise identical inducible cytokine receptor design. The tyrosine effector domain consists of a STAT5-activating sequence from IL7R fused to a STAT4-activating sequence from IL12Rb2. Each construct contains a membrane-targeting motif (CD8 SS), a dimerization domain (FKBP(F36V)), a tyrosine kinase activating domain derived from either the EpoR, GP130, PrIR, GHR, GCSFR, or TPOR/MPLR receptors, and a tyrosine effector domain consisting of the IL7R(316-459) cytotail fused to the IL12Rb2(775-825) peptide. Chimeric cytokine receptors also include an epitope tag for detection (Myc). The following inducible chimeric cytokine receptors were tested in this study:
HEK293 cells were transfected with constructs encoding the above inducible chimeric cytokine receptors, and a luciferase reporter for either STAT4 or STAT5. The luciferase reporters (Promega) encoded a luciferase under the control of either a STAT4 or STAT5 responsive element. As HEK293 cells lack STAT4, in wells transfected with the STAT4 reporter, a plasmid encoding constitutively-expressed STAT4 was transfected as well added. Transfected EpoR, GHR, and IL12Rb1+IL12Rb2 (the IL12 receptor) were used as positive controls. The ligand added to inducible chimeric cytokine receptors was AP1903. Epo was added to EpoR transfected cells, Growth Hormone to GHR transfected cells, and IL-12 to IL12 receptor transfected cells

With “BAFF: soluble BAFF trimers, TNF superfamily ligand” the Stat5 reporter activity ([1]; FIG. 37C) was “induced Stat5 and Stat4 activation” and the Stat4 reporter activity ([1]; FIG. 37D) was “induced Stat5 and Stat4 activation”.

For “CD8 SS-Myc-FKBP(F36V)-EpoR(237-338; L241G, L242P)-IL2Rb(393-433, 518-551): inducible chimeric cytokine receptor”, the “STAT5 signaling of cytotail fragments” value (STAT5 [2]) was “far greater signaling”.

“CD8 SS-Myc-FKBP(F36V)-EpoR(237-508; L241G, L242P)-V5: inducible chimeric cytokine receptor” was tested, and the “STAT5 reporter signaling with ligand” value (STAT5 [3]) was “closest to the EpoR(1-508) positive control; also recorded: robust activity”.

For “CD8 SS-Myc-FKBP(F36V)-EpoR(237-338; L241G, L242P)-IL7R(316-459): inducible chimeric cytokine receptor”, the “CAR-T cell growth with AP1903 (live cell count)” value (“CAR-T cell growth with AP1903” below) (CAR-T cells [4]) was “robust growth”, the “CAR-T cell viability with AP1903” value (CAR-T cells [4]) was “higher viability with AP1903 comparable to IL2 treatment” and the “cell phenotype after growth with AP1903” value (CAR-T cells [5]) was “more stem cell memory”. The “cytokine release without any treatment” value (CAR-T cells [6]) was “No cytokine release was observed”.

With “CD8 SS-Myc-FKBP(F36V)-EpoR(237-338; L241G, L242P)-IL7R(316-459)-IL12Rb2(775-825): inducible chimeric cytokine receptor” the basal signaling (STAT4; FIG. 9) was “lowest basal signaling”.

For “CD8 SS-Myc-FKBP(F36V)-EpoR(237-338; L241G, L242P)-IL7R(376-416, 424-459; Y456F): inducible chimeric cytokine receptor”, the “STAT5 signaling of cytotail fragments” value (STAT5 [2]) was “fully recreated”.

In the case of “GoCART: myristoylation sequence followed by a portion of MyD88 and CD40 fused to two repeats of FKBP(F36V); previously reported multimerizer [reference compound]”, the “CAR-T cell growth with AP1903” value (CAR-T cells [4]) is reported as “slight growth”, the “CAR-T cell viability with AP1903” value (CAR-T cells [4]) is reported as “higher viability with AP1903 comparable to IL2 treatment” and the “cell phenotype after growth with AP1903” value (CAR-T cells [5]) is reported as “less stem cell memory and more effector memory”. The “cell phenotype when grown further with IL2” value (CAR-T cells [5]; IL2) was “somewhat more differentiated”, the “cytokine release without any treatment” value (CAR-T cells [6]) was “GM-CSF, IL5, IL13, IL22, and MIP1a at day 2 and more so at day 8” and the “cytokine release with AP1903” value (CAR-T cells [6]; day 2 and day 8, normalized to untreated TagBFP-expressing CAR-T Cells, FIG. 20, FIG. 21) was “robust cytokine release”. For the same molecule, the “autoactivation (cytokine release in the absence of small molecule)” value (“autoactivation” for short) (CAR-T cells [6]; day 2 and day 8) was “strongly so”.

For “CD8 SS-Myc-FKBP(F36V)-GCSFR(614-710)-IL7R(316-459)-IL12Rb2(775-825): inducible chimeric cytokine receptor”, the “signaling for STAT4” value (STAT4; AP1903, FIG. 9) was “strongest signaling for STAT4” and the basal signaling (STAT4; FIG. 9) was “had basal signaling”.

With “CD8 SS-Myc-FKBP(F36V)-EpoR(237-338; L241G, L242P)-IL2Rb(333-551): inducible chimeric cytokine receptor” the “CAR-T cell growth with AP1903” value (CAR-T cells [4]) was “slight growth”, the “cytokine release without any treatment” value (CAR-T cells [6]) was “release IL13 and some TNFa (day 2, FIG. 23) that diminishes by day 8” and the “autoactivation” value (CAR-T cells [6]; day 2 and day 8) was “mildly autoactivating”.

For “CD8 SS-Myc-FKBP(F36V)-EpoR(237-338; L241G, L242P)-IL12Rb2(775-825): inducible chimeric cytokine receptor”, the “STAT4 signaling when used as a tyrosine effector domain” value (STAT4; peptide containing Y800, see Examples 3 and 5) was “sufficient to provide STAT4 signaling”.

B1: CD8 SS-Myc-FKBP(F36V)-EpoR(237-338; L241G, L242P)-IFNAR2(310-515): inducible chimeric cytokine receptor (protein)
chain: KKKVWDYNYDDESDSDTEAAPRTSGGGYTMHGLTVRPLGQASATSTESQLIDPESEEEPDLPEVDVELPTMPKDSPQQLELLSGPCERRKSPLQDPFPEEDYSSTEGSGGRITFNVDLNSVFLRVLDDEDSDDLEAPLMLSSHLEEMVDPEDPDNVQSNHLLASGEGTQPTFPSPSSEGLWSEDAPSDQSDTSESDVDLGDGYIMR
With B1 the “CAR-T cell counts on post-production day 5 and day 8” value (CAR-T cells [4]; FIG. 25) was “least growth”, the growth without signaling (CAR-T cells [4]; no treatment, over a week, FIG. 22) was “some less growth” and the IL-2 consumption (CAR-T cells [6]; Day 8 cytokine measurements) was “did not consume as much IL-2”. For the same molecule, the “cytokine release without any treatment” value (CAR-T cells [6]) was “constitutively release small amounts of IL5” and the “autoactivation” value (CAR-T cells [6]; day 2 and day 8) was “mildly autoactivating”.
